We go through 1 molecule from PubChem BioAssay (NCI).

Among the test systems are OVCAR-5 ovarian; OVCAR-4 ovarian; OVCAR-3 ovarian; HT29 colon; NCI/ADR-RES ovarian; SK-MEL-2 melanoma; SR leukemia; MOLT-4 leukemia; NCI-H522 lung; SNB-75 CNS.
Common to all, as to assay: inhibition of tumour cell growth, NCI panel, 48 h

SMILES strings stand for the structures. Values joined by “and” are separate entries in the source; they are usually repeats but may differ in a detail not shown here. Equal entries are not always repeated.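 Grown in 96-well plates, cells were treated for 48 hours with each compound at five concentrations. Insufficient inhibition: endpoint recorded as highest concentration tested. Abbreviation: GI50, concentration required for 50% inhibition of growth. TGI: concentration producing complete growth inhibition.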 Bounds are passed on as bounds.

For `CC(=O)Oc1ccc(C(c2ccc(OC(C)=O)cc2)c2ccccn2)cc1`, the GI50 in the test with OVCAR-5 ovarian was 55.7 µM; with OVCAR-4 ovarian, 0.287 µM; in the test on OVCAR-3 ovarian, 9.94 µM; with NCI/ADR-RES ovarian, 0.908 µM; in the test on SK-MEL-2 melanoma, 43.1 µM; in the test on SR leukemia it was more than 100 µM. For the same molecule, the GI50 was 40.5 µM in the test with MOLT-4 leukemia, 59 µM in the test with NCI-H522 lung and 24.8 µM in the test on SNB-75 CNS. Also, the TGI was > 100 µM and 95.4 µM with OVCAR-5 ovarian; 4.42 µM in the test on OVCAR-4 ovarian; 98.9 µM and 23.2 µM in the test with OVCAR-3 ovarian; more than 100 µM in the test on HT29 colon; more than 100 µM in the test with NCI/ADR-RES ovarian; more than 100 µM in the test on SK-MEL-2 melanoma. For the same molecule, the TGI with SR leukemia, with MOLT-4 leukemia, with NCI-H522 lung and with SNB-75 CNS was more than 100 µM throughout.
